Here are results for 27 compounds from patent US5179093A, “Quinoline-diones” (Schering Corporation, priority 1991, dated 1993).

≈ marks a conversion by molar mass, not a printed value.

Data set [1] is described as follows: Compound toxicity assay: inhibition of HeLa cell translation (^3 H-LEU assay). Type of data set: cell-based. Conditions: human; HeLa cells, overnight (24 hours) treatment, tritiated leucine incorporation; read-out: CYTOTOXICITY ^3 H--LEU ASSAY IC50. The protocol: HeLa cells were treated with inhibitory compound for 24 hours, after which levels of translational activity were assayed.
For assay of translational activity, HeLa cultures were grown to 80% confluency in 96 well microtiter plates, treated with appropriate concentrations of compound in 2% EMEM during an overnight incubation at 37° C., then rinsed with HBSS and overlaid with […] of 2% EMEM containing 8 uCi of tritiated leucine (^3 H-LEU, 141 Ci/mMol, Amersham Corp., Arlington Heights Ill.). After 1 hr incubation at 36.5° C., the cells were rinsed twice with phosphate buffered saline (PBS) and lysed in 400 ul/well of 1×PBS, 0.5% sodium dodecyl sulphate (SDS). After a 10 minute incubation at 36.5° C., the contents of the well were transferred to a well in a Millititer HA microfiltration plate (Millipore Corp., Bedford, MA). The TCA insoluble proteins were precipitated onto the filter disc by a 10 minute fixation with 5% TCA, followed by filtration under vacuum and three 10 minute rinses with 95% ethanol. The filters were dried at room temperature, cut from the milltitier plate and transferred to scintillation vials. TCA precipitable counts were assayed in 5 ml of Scintisol (Isolab, Akron, Ohio). The inhibitory activity of a compound was plotted versus the concentration and an IC50 value (that concentration of the compound required to decrease cellular translational activity by 50%) was derived for each compound.

The subject of a further data set is HSV-2 (strain MS). Put plainly: Transient expression of beta galactosidase in transfected HeLa cells superinfected with HSV-2 (HSV-β-GAL assay). Type of data set: cell-based. Conditions: Human alphaherpesvirus 2, plasmid pON 245^ori-, moi=5 pfu/cell, 24 hours, read-out: ANTI-HSV ACTIVITY HSV-β-GAL ASSAY IC50. The protocol:
HeLa and Vero cell cultures were maintained in Eagles Minimal Essential Medium (EMEM) which was supplemented with glutamine, penicillin, streptomycin and 10% fetal calf serum (10% EMEM). Stock cultures of HSV-2 (strain MS available from ATCC VR-540) were grown in and harvested from Vero cells. Viral stocks were titered in Vero cells according to established procedures.
Plasmid pON 245^ori- contains the promoter of the HSV-1 thymidine kinase (tk) gene located immediately 5' of the E. coli lac Z gene. In this arrangement, the tk promoter controls transcription from the bacterial gene in transient expression assays. Additionally, an SV40 polyadenylation signal is present at the 3' end of the lac Z gene to allow for the efficient translation of the mRNA in eucaryotic cells. The expression of beta galactosidase in a transient assay using pON 245^ori- is dependent upon superinfection of the transfected cells with HSV. […] For example see U.S. application Ser. No. 07/435,491 filed Sep. 5, 1989, the disclosure of which is incorporated herein by reference thereto.
HeLa cells were seeded into 96 well microtiter plates and allowed to grow to 80% confluency (approximately 35,000 cells/well). One half microgram of plasmid pON 245^ori- DNA was introduced into the cells of each well by the […] precipitation technique (Grahman and Van der Eb, 1973). Four to six hours later, the cells were rinsed with hank's Balanced Salt Solution (HBSS), overlaid with 10% EMEM and incubated at 37° C. At 24 hrs post-transfection, cells were rinsed, overlaid with 10% EMEM again and re-incubated at 37° C. At 48 hrs post-transfection, cells were rinsed and overlaid with either EMEM containing 2% fetal calf serum (2% EMEM), 2% EMEM containing HSV-2 (strain MS, Multiplicity of Infection [moi]=5 pfu/cell) or 2% EMEM containing HSV-2 and the appropriate concentration of Schering compound to be tested. Twenty-four hours later, the cells were harvested and assayed for beta galactosidase activity as described below.
All determinations of beta galactosidase activity were performed in 96 well microtiter plates. The intracellular level of beta galactosidase activity in each well was determined from cell lysates of the monolayer cultures. Aliquots were assayed by incubation in the presence of beta galactosidase substrate, 4-methylumbelliferyl-β-D-galactoside (MUG, 125 ug/ml, Sigma), for 2 hours. The generation of fluorescent product was quantified on a Microfluor microfluorimeter (Dynatech) after addition of 0.1M glycine, pH 10.3 (Spaete and Mocarski, 1985). The inhibitory activity of a compound was plotted versus the concentration and an IC50 value (the concentration of compound required to reduce beta glactosidase expression by 50%) was obtained for each compound tested.

On to `Cc1cccc(NC=C2C(=O)c3cccnc3N(c3ccccc3)C2=O)n1` [EX. 37, 1-Phenyl-E,Z-3-[(6-methyl-2-pyridylamino)methylene]-3,4-dihydro-2H-[1,8]-naphthyridine-2,4-dione], for which, in data set [1], the CC50 at 24 h was 56 µg/mL (≈ 157 µM). Further, the IC50 in the data set with HSV-2 (strain MS) was found to be 22 µg/mL (≈ 61.7 µM).
With `CCNC=C1C(=O)c2ccccc2N(C)C1=O` [EX. 44, (E,Z) 1-methyl-3-ethylaminomethylene-quinolin-2,4(1H)dione], the CC50 at 24 h in data set [1] stood at 43 µg/mL (≈ 187 µM). The half-inhibitory concentration (IC50) with HSV-2 (strain MS) is 14 µg/mL (≈ 60.8 µM).
For `O=C1C(=CNCc2ccncc2)C(=O)N(Cc2ccccc2)c2ccc(Cl)cc21` [EX. 17, (E,Z1-Benzyl-3-[(4-Pyridylmethylamino)methylene-6-Chloro-Quinolin-2,4(1H)-Dione], in that order: 17 µg/mL (≈ 42.1 µM) and 4 µg/mL (≈ 9.9 µM).
`COc1ccc(OCCCOCN2C(=O)C(=CNCc3ccncc3)C(=O)c3ccccc32)c(Cl)c1` [EX. 43, (E,Z) 1-[3(2-chloro-4-methoxyphenoxy)-propyloxymethyl]-3-(4-pyridylmethylamino)methylene-quinolin-2,4(1H)dione]: the CC50 at 24 h in data set [1] was found to be 30 µg/mL (≈ 59.1 µM). Moreover, the IC50 in the data set with HSV-2 (strain MS) came out at 10 µg/mL (≈ 19.7 µM).
Regarding `CCCCCCN1C(=O)C(=CNCc2ccncc2)C(=O)c2ccccc21` [EX. 26, (E,Z)1Hexyl-3-[(4-Pyrigylmethylamino)methylene-Quinolin-2,4(1H)-Dione], the CC50 at 24 h in data set [1] was 43 µg/mL (≈ 118 µM). In the data set on HSV-2 (strain MS), the concentration for half-maximal inhibition (IC50) is 4 µg/mL (≈ 11 µM).
As to `CCCCCCCN1C(=O)C(=CNCc2ccncc2)C(=O)c2ccccc21` [EX. 30, (E,Z)1-Heptyl-3-[(4-Pyridylmethylamino)methylene]-Quinolin-2,4(1H)-Dione], the CC50 at 24 h in data set [1] came out at 20 µg/mL (≈ 53 µM). Besides, the IC50 in the data set on HSV-2 (strain MS) was determined as 3 µg/mL (≈ 7.95 µM).
The corresponding values for `Cc1ccc2c(c1)C(=O)C(=CNCc1ccncc1)C(=O)N2Cc1ccccc1` [EX. 15, (E,Z)1-Benzyl-3-[4-Pyridylmethylamino)methylene]-6-Methyl-Quinolin-2,4(1H)-Dione] are 37 µg/mL (≈ 96.5 µM) and 6 µg/mL (≈ 15.6 µM).
Consider `O=C1C(=CNCc2ccccc2)C(=O)N(Cc2ccccc2)c2cc(Cl)ccc21` [EX. 18, (E,Z)1-Benzyl-3-Benzylaminomethylene-7-Chloro-Quinolin-2,4(1H)-Dione], for which the CC50 at 24 h in data set [1] came to 10 µg/mL (≈ 24.8 µM). Besides, the IC50 in the data set with HSV-2 (strain MS) turned out to be 6 µg/mL (≈ 14.9 µM).
The corresponding values for `O=C1C(=CNCc2ccccc2)C(=O)N(c2ccccc2)c2ccccc21` [EX. 27, (E,Z)1-Phenyl-3-Benzylaminomethylene-Quinolin-2,4(1H)-Dione] are 10 µg/mL (≈ 28.2 µM) and 4 µg/mL (≈ 11.3 µM).
With `CN(C)C=C1C(=O)c2cccnc2N(c2ccccc2)C1=O` [EX. 32, 1-Phenyl-3-(dimethylaminomethylene)-3,4-dihydro-2H-[1,8]-naphthyridine-2,4-dione], the CC50 at 24 h in data set [1] was > 100 µg/mL. Also, in the data set with HSV-2 (strain MS), the IC50 was 18 µg/mL (≈ 61.4 µM).
As to `Cc1cccc2c1N(Cc1ccccc1)C(=O)C(=CNCc1ccccc1)C2=O` [EX. 20, (E,Z) 1-Benzyl-3-Benzylaminomethylene-8-Methyl-Quinolin-2,4(1H)-Dione], the CC50 at 24 h in data set [1] was determined as 10 µg/mL (≈ 26.1 µM). For the same compound, the concentration for half-maximal inhibition (IC50) in the data set with HSV-2 (strain MS) was determined as 3 µg/mL (≈ 7.84 µM).
On to `CCCCCCN1C(=O)C(=CNCc2ccccc2)C(=O)c2ccccc21` [EX. 25, (E,Z)1-hexyl-3-benzyleminomethylene-quinolin-2,4(1H)-Dione], for which the CC50 at 24 h in data set [1] was 37 µg/mL (≈ 102 µM). The IC50 with HSV-2 (strain MS) was < 3 µg/mL.
For the compound `CCNC=C1C(=O)Oc2ncccc2C1=O` [EX. 38, 3-(ethylaminomethylene)-2,4-dioxo 3,4-dihydro-2H-pyrido-[2,3-b]-pyran], the IC50 in the data set on HSV-2 (strain MS) was > 25 µg/mL.
Regarding `CC(NCc1ccccc1)=C1C(=O)Oc2ncccc2C1=O` [EX. 31, 3-[1-Benzylaminoethylidine]-2,4-dioxo-2,3-dihydro-4H-pyrido-[2,3-b]-pyran], the CC50 at 24 h in data set [1] was > 100 µg/mL. Moreover, the IC50 with HSV-2 (strain MS) was 11 µg/mL (≈ 37.4 µM).
`CCCCCCN1C(=O)C(=CN[C@H]2C(O)O[C@H](CO)[C@@H](O)[C@@H]2O)C(=O)c2ccccc21` (some centres unmarked) [EX. 42, (E,Z)-1-hexyl-3-(D) glucosaminomethylene-quinolin-2,4(1H)dione]: in data set [1], the CC50 at 24 h was 25 µg/mL (≈ 57.5 µM). Also, the IC50 with HSV-2 (strain MS) came to 10 µg/mL (≈ 23 µM).
The corresponding values for `O=C1C(=CNCc2ccncc2)C(=O)N(Cc2ccccc2)c2ccccc21` [EX. 24, (E,Z)1-Benzyl-3-[(4-Pyridylmethylamino)methylene]-Quinolin-2,4(1H)-Dione] are > 100 µg/mL and 10 µg/mL (≈ 27.1 µM).
For the compound `CCCCCCCN1C(=O)C(=CNCc2ccccc2)C(=O)c2ccccc21` [EX. 29, (E,Z)1-Heptyl-3-Benzylaminomethylene-Quinolin-2,4(1H)-Dione], the CC50 at 24 h in data set [1] turned out to be 16 µg/mL (≈ 42.5 µM). The IC50 in the data set on HSV-2 (strain MS) worked out at 5 µg/mL (≈ 13.3 µM).
On to `Cc1cccc2c1N(Cc1ccccc1)C(=O)C(=CNCc1ccncc1)C2=O` [EX. 21, (E,Z)1-Benzyl-3-[(4-Pyridylmethylamino)methylene]-8-Methyl-Quinolin-2,4(1H)-Dione], for which, in data set [1], the CC50 at 24 h is 29 µg/mL (≈ 75.6 µM). For the same compound, the IC50 in the data set with HSV-2 (strain MS) was < 3 µg/mL.
`O=C1C(=CNCc2cnc[nH]2)C(=O)N(Cc2ccccc2)c2ccccc21` [EX. 41, (E,Z)-1-benzyl-3-[(1H-5-imidazolylmethyl)aminomethylene]-quinolin-2,4(1H)dione]: the CC50 at 24 h in data set [1] was determined as 34 µg/mL (≈ 94.9 µM). For the same compound, in the data set on HSV-2 (strain MS), the IC50 was 8 µg/mL (≈ 22.3 µM).
Turning to `C=CCNC=C1C(=O)Oc2ccccc2C1=O` [EX. 34, E,Z-3-[Allylaminomethylene]-dihydrobenzo-[b]-pyran-2,4-dione], the CC50 at 24 h in data set [1] worked out at 46 µg/mL (≈ 201 µM). Besides, the IC50 in the data set on HSV-2 (strain MS) was found to be 8 µg/mL (≈ 34.9 µM).
For the compound `CN1C(=O)C(=CNCc2ccccc2)C(=O)c2ccccc21` [EX. 14, (E,Z) 1-Methyl-3-Benzylaminomethylene-Quinolin-2,4(1H)-Dione], in data set [1], the CC50 at 24 h was determined as 27 µg/mL (≈ 92.4 µM). For the same compound, the 50% inhibitory concentration (IC50) in the data set with HSV-2 (strain MS) was 9 µg/mL (≈ 30.8 µM).
Consider `CN1C(=O)C(=CNCc2ccncc2)C(=O)c2ccccc21` [EX. 22, (E,Z)1-Methyl-3-[(4-Pyridylmethylamino)methylene]Quinolin-2,4(1H)-Dione], for which the CC50 at 24 h in data set [1] is 100 µg/mL (≈ 341 µM). Further, the IC50 with HSV-2 (strain MS) was < 3 µg/mL.
In the case of `O=C1C(=CNCc2ccccc2)C(=O)N(Cc2ccccc2)c2ccc(Cl)cc21` [EX. 16, (E,Z 1-Benzyl-3-Benzylaminomethylene-6-Chloro-Quinolin-2,4(1H)-Dione], the CC50 at 24 h in data set [1] turned out to be 7 µg/mL (≈ 17.4 µM). In addition, the IC50 in the data set with HSV-2 (strain MS) is < 3 µg/mL.
As for `O=C1C(=CNCc2ccncc2)C(=O)N(Cc2ccccc2)c2ccsc21` [EX. 46], the CC50 at 24 h in data set [1] turned out to be 23 µg/mL (≈ 61.3 µM). Moreover, the IC50 in the data set on HSV-2 (strain MS) was 3 µg/mL (≈ 7.99 µM).
The corresponding values for `CCCCCCCN1C(=O)C(=CNN2CCOCC2)C(=O)c2ccccc21` [EX. 39, (E,Z)-1-heptyl-3-[(4-morpholino)aminomethylene]-quinolin-2,4(1H)dione] are 29 µg/mL (≈ 78.1 µM) and 4 µg/mL (≈ 10.8 µM).
On to `O=C1C(=CNCc2ccccc2)C(=O)N(c2ccccc2)c2ncccc21` [EX. 36, 1-Phenyl-E,Z-3-[benzylaminomethylene]-3,4-dihydro-2H-[1,8]-naphthyridine-2,4-dione], for which, in data set [1], the CC50 at 24 h came to 42 µg/mL (≈ 118 µM). Besides, the IC50 in the data set on HSV-2 (strain MS) was determined as 22 µg/mL (≈ 61.9 µM).
For `CCNC=C1C(=O)c2cccnc2N(c2ccccc2)C1=O` [EX. 35, 1-Phenyl-E,Z-3-[ethylaminomethylene]-3,4-dihydro-2H-[1,8]-naphthyridine-2,4-dione], in that order: > 50 µg/mL and 7 µg/mL (≈ 23.9 µM).
